Results on two compounds are retold here after US12161750B2, “Antibiotic formulations for lower back pain” (Persica Pharmaceuticals Ltd., priority 2016, dated 2024).

The subject of one data set is Gram-positive bacteria. The settings on record: cited from earlier work.
The nature of data set [1]: In vitro diffusion and release from poloxamer gel embedded in an agar disc (HPLC). The format is physicochemical. The settings on record: 100 microliters of poloxamer formulation embedded in an agar disc. As to the method: 100 microliters of poloxamer formulation were embedded in an agar disc. The release of loaded compound into media around the agar structure is measured. The assays mimic a disc containing a poloxamer injection. The mass of antibiotic released over 72 h was determined using high-performance liquid chromatography (HPLC).

In data set [2] the test system is S. aureus. As to the kind of experiment: Sheep model of S. aureus intradiscal infection, therapeutic dosing. The format is in vivo. The settings on record: for discs sterilized: one hour post infection. The source says: A sheep model of S. aureus intradiscal infection has been developed to test the in vivo efficacy of antibiotic formulations. Male Charollais or Suffolk cross sheep, approximately 35-40 kg+ at the start of the study were housed according to Home Office guidelines under the Animals (Scientific Procedures) Act 1986 and acclimatised for at least 7 days with straw bedding and access to water. They were fed a Sheep concentrate diet without added antibiotics with additional forage (hay/straw) provided.
The bacterial inoculum (ATCC 29213) is prepared from frozen glycerol/phosphate-buffered saline stock at 2.5×10^6 CFU/ml by dilution to 2×10^4 CFU/ml:
In a therapeutic model, each sheep is anesthetised and given four 0.05 ml (target volume) intradiscal Injections at L1/L2, L2/L3, L3/L4 and L4/5 of S. aureus inoculum (1×10^3 cells/disc), one injection per disc.
(§1) Approximately 1 hour, or at another selected time, after the first injection, each sheep is given a second injection of the test formulation or control formulation. Each disc that was previously successfully injected with bacteria is given a 0.1 ml (target volume) intradiscal injection. As part of the anaesthesia the animal is given analgesics (intra-muscular) in the form of meloxicam at the recommended dosage. This analgesic may be repeated if considered necessary by the named veterinary surgeon. In a prophylactic model, the order of administrations is reversed such that the first injection is a formulation of antibiotic or control and the second injection contains the bacterial inoculum. The time between administration of the antibiotic and bacteria may be hours, days, weeks or months.
A single 20G 3.5″ spinal needle is positioned directly into the edge of the nucleus pulposus of each disc. Following confirmation of positioning of the needles a second 25G 4.69″ needle primed with the dose solution is inserted into the first needle and the tip placed into the middle of the nucleus pulposus. Following confirmation of positioning of the second needles each disc is injected with the bacteria. The inner needles will then be removed. Just prior to the 1 hour post-dose bacteria time-point a new 25G 4.69″ needle, primed with the dose solution, is inserted into the 20G 3.5″ and positioned into the middle of the nucleus pulposus. The second treatment is dose given via this needle, 1 hour post the first dose.
Bacterial infection: A single 20G 3.5″ spinal needle is positioned directly into the edge of the nucleus pulposus of each disc. Following confirmation of positioning of the needles a second 25G 4.69″ needle primed with the dose solution is inserted into the first needle and the tip placed into the middle of the nucleus pulposus. Following confirmation of positioning of the second needles each disc is injected with the bacteria. The needles will then be removed. The animals are repositioned to access the other side of the spine.
Injection of formulation: A second 20G 3.5″ spinal needle is positioned directly into the edge of the nucleus pulposus on the opposite side to the first injection of each disc. Just prior to time-point for administration a new 25G 4.69″ needle, primed with the dose solution, is inserted into the 20G 3.5″ and positioned into the middle of the nucleus pulposus. The second treatment is dose given via this needle.
At set time-points post-dose the sheep is killed. The injected vertebrae discs are dissected out and the nucleus pulposus from each disc is removed. In addition, an extra untreated disc is sampled to provide control tissue. The disc is removed after all of the treated discs for the particular animal with care to ensure no contamination between control and treated samples.
The sheep intradiscal infection model of Example 1 was used to evaluate the in vivo efficacy of therapeutically dosed vancomycin.

For data set [3], the system named is S. aureus. As to the kind of experiment: Sheep model of S. aureus intradiscal infection, prophylactic dosing. It counts as in vivo. The settings on record: Example 3; 5 mg/disc on day 0, discreet infection with 10^3 S. aureus per disc on day 3, harvest 24 h after infection. As to the method: as §1
The order of the injections may be reversed such that the first injection is a formulation of antibiotic and the second injection contains the bacterial inoculum. The time between administration of the antibiotic and bacteria may be hours, days, weeks or months. The second injection may be co-localised or discreet e.g. injected on the same side of the disc as the first injection or injected on the other side of the disc to the first injection respectively.
Discs were treated with vancomycin (5 mg/disc) on day 0 and on day 3 were discreetly infected with 10^3 S. aureus per disc. […]

Data set [4] deals with MRSA (methicillin resistant Staphylococcus aureus). Conditions: formulated with poloxamer 407, sustained local delivery to the infected ear; cited from earlier work.

Values after ≈ are worked out from the molar mass of the structure shown. Some results are limits rather than exact numbers.

As to `CC(=O)NC[C@H]1CN(c2ccc(N3CCOCC3)c(F)c2)C(=O)O1` [Linezolid], the minimum inhibitory concentration (MIC) in the data set on Gram-positive bacteria was 4 µg/mL (≈ 11.9 µM). Besides, the “input antibiotic accounted for (released) after 72 h” value in data set [1] is recorded as 57%.
For the compound `CN[C@H](CC(C)C)C(=O)N[C@H]1C(=O)N[C@@H](CC(N)=O)C(=O)N[C@H]2C(=O)N[C@H]3C(=O)N[C@H](C(=O)N[C@H](C(=O)O)c4cc(O)cc(O)c4-c4cc3ccc4O)[C@H](O)c3ccc(c(Cl)c3)Oc3cc2cc(c3O[C@@H]2O[C@H](CO)[C@@H](O)[C@H](O)[C@H]2O[C@H]2C[C@](C)(N)[C@H](O)[C@H](C)O2)Oc2ccc(cc2Cl)[C@H]1O` [Vancomycin], in data set [1], the “input antibiotic accounted for (released) after 72 h” value stood at 92%. Besides, the discs sterilized in the data set on S. aureus [2] (Example 2, discreet dosing, 5 mg vancomycin/disc) was 5 of 7; in the data set on S. aureus [2] (Example 2, discreet dosing, 20 mg vancomycin/disc) it was 3 of 7; in the data set on S. aureus [2] (Example 2, vancomycin in Omnipaque with 0.5% hyaluronic acid, co-localised dosing, within 24 h), “all the discs were effectively sterilized”. In the data set with S. aureus [2] (Example 2, discrete dosing groups), the “reduction in average bacterial burden” value is ≤ 3 log10. Also, the sterile discs with S. aureus [2] (Example 9, discrete dosing) was 3 of 8. Further, the “reduction in average disc bacterial burden” value with S. aureus [2] (Example 9, discrete dosing from the other side of the disc) was “did not significantly reduce average bacterial disc burden”. Further, the “average reduction in bacterial burden” value with S. aureus [3] was > 3 log10. The “effect on MRSA otitis media” value in data set [4] is on record as “completely cures the otitis media caused by MRSA infection”.

A word on the MIC: it is the least concentration at which growth counts as inhibited.
